IC50 data for twelve molecules are collected here from patent US11098060B2, “Macrocycle containing aminopyrazole and pyrimidine and pharmaceutical composition and use thereof” (CHIA TAI TIANQING PHARMACEUTICAL GROUP CO., LTD., priority 2017, dated 2021).

Chain of TrkA^G595R (Kinase domain) kinase (P04629 510-781 G595R): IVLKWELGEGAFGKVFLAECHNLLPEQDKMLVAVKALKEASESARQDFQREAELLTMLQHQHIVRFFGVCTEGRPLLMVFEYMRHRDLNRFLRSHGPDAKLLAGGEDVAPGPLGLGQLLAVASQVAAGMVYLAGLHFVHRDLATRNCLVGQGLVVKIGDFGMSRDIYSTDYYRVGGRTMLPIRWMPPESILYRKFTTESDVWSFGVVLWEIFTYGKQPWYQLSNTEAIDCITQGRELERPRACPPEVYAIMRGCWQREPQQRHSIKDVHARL
Chain of TrkA^WT kinase (P04629 33-796): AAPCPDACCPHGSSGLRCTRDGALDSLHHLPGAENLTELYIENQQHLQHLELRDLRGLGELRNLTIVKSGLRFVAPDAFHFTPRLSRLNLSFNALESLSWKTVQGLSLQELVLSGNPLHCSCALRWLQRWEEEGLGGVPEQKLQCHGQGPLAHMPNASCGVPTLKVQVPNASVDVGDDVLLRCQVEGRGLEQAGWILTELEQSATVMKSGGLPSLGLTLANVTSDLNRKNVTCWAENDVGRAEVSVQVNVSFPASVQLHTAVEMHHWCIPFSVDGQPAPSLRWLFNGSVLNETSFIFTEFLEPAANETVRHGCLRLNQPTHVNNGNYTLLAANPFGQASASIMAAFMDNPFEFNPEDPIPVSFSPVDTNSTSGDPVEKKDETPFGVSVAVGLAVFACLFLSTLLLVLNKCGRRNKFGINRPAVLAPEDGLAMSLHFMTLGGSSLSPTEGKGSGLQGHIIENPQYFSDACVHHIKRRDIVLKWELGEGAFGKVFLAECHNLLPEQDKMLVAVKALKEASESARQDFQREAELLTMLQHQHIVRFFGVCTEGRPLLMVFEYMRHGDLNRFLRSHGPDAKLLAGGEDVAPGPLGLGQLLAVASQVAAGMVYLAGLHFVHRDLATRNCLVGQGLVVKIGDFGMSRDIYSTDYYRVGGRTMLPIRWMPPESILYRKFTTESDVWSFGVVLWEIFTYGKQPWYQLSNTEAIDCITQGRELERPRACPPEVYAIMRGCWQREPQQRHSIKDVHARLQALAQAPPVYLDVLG

The first test has as its target TrkA^G595R (Kinase domain) kinase (Homo sapiens (Human), UniProt P04629, G595R). The test is described as follows: Assay for inhibitory activity (IC50) against TrkA^G595R kinase (HTRF). The class given is biochemical. As to conditions: kinase 0.2 nM, TK peptide 1 μM, 120 min at 23° C.
What is called IC50 is the point on the concentration scale where inhibition reaches its midpoint. Molecule `CC1(C)CNC(=O)c2c(N)nn3ccc(nc23)N2C[C@@H](F)CC2c2cc(F)cnc2OC1` (stereo partly drawn) [Example 18, (1^3E,1^4E,2^2R,2^4S)-1^2-amino-2^4,3^5-difluoro-6,6-dimethyl-4-oxa-8-aza-1(5,3)-pyrazolo [1,5-a]pyrimidine-3(3,2)-pyridine-2(1,2)-pyrrolidylcyclononanephane-9-one] registered an IC50 of 1.24 ± 0.15 nM.

In the case of `C[C@@H]1COc2ncc(F)cc2[C@H]2C[C@H](F)CN2c2ccn3nc(N)c(c3n2)C(=O)N1` [Example 19, (1^3E,1^4E,2^2R,2^4S,6R)-1^2-amino-2^4, 3^5-difluoro-6-methyl-4-oxa-7-aza-1(5,3)-pyrazolo[1,5-a] pyrimidine-3(3,2)-pyridine-2(1,2)-pyrrolidylcyclooctanephane-8-one], half-maximal inhibition (IC50) was put at 0.73 ± 0.07 nM.

Molecule `Nc1nn2ccc3nc2c1C(=O)NCCCCc1ncc(F)cc1[C@H]1C[C@H](F)CN31` [Example 31, (1^3E,1^4E,2^2R,2^4S)-1^2-amino-2^4,3^5-difluoro-8-aza-1(5,3)-pyrazolo[1,5-a]pyrimidine-3(3,2)-pyridine-2(1,2)-pyrrolidylcyclononanephane-9-one] came in with an IC50 of 1.45 ± 0.11 nM.

Another test addresses TrkA^WT kinase (Homo sapiens (Human), UniProt P04629). The test is described as follows: Assay for inhibitory activity (IC50) against TrkA^WT (HTRF). The note with it: TrkA 1 nM, ATP 40 μM, TK peptide 1 μM, 60 min at 23° C. The class given is biochemical. On the technique in general: In TR-FRET formats the signal depends on donor and acceptor labels being close together.
For `Nc1nn2ccc3nc2c1C(=O)NCCCOc1ncc(F)cc1C1CCCN31` (stereo not drawn) [Example 2], the midpoint of inhibition, the IC50, lay at 0.57 ± 0.1 nM.

For `Nc1nn2ccc3nc2c1C(=O)NCCCCc1cccc(n1)C1CCCN31` (stereo not drawn) [Example 3, (1^3E,1^4E)-1^2-amino-4-oxa-8-aza-1(5,3)-pyrazolo[1,5-a]pyrimidine-3(2,6)-pyridine-2 (1,2)-pyrrolidylcyclononanephane-9-one], it took 0.84 ± 0.12 nM to reach half-maximal inhibition (IC50).

Regarding `Nc1nn2ccc3nc2c1C(=O)NCCOc1ncccc1[C@H]1CCCN31` [Example 5, (R,1^3E,1^4E)-1^2-amino-4-oxa-7-aza-1(5,3)-pyrazolo[1,5-a]pyrimidine-3(3,2)-pyridine-2 (1,2)-pyrrolidylcyclooctanephane-8-one], the IC50 was 0.37 ± 0.04 nM.

`Nc1nn2ccc3nc2c1C(=O)NCCCOc1ncccc1[C@H]1CCCN31` [Example 6, (R,1^3E,1^4E)-1^2-amino-4-oxa-8-aza-1(5,3)-pyrazolo[1,5-a]pyrimidine-3(3,2)-pyridine-2 (1,2)-pyrrolidylcyclononanephane-9-one] showed a half-maximal inhibitory concentration (IC50) of 0.47 ± 0.26 nM.

The molecule `Nc1nn2ccc3nc2c1C(=O)NCCOc1ncccc1C1CCCN31` (stereo not drawn) [Example 11, (1^3E, 1^4E)-1^2-amino-4-oxa-7-aza-1(5,3)-pyrazolo[1,5-a]pyrimidine-3(3,2)-pyridine-2 (1,2)-pyrrolidylcyclooctanephane-8-one] registered an IC50 of 1.04 ± 0.34 nM.

`Nc1nn2ccc3nc2c1C(=O)NCCCOc1ncc(F)cc1C1C[C@@H](F)CN31` (stereo partly drawn) [Example 13, (1^3E,1^4E, 2^2R,2^4R)-1^2-amino-2^4,3^5-difluoro-4-oxa-8-aza-1(5,3)-pyrazolo[1,5-a]pyrimidine-3(3,2)-pyridine-2 (1,2)-pyrrolidylcyclononanephane-9-one] showed an IC50 of 0.64 ± 0.02 nM.

In turn, `Nc1nn2ccc3nc2c1C(=O)NCCOc1ccc(F)cc1[C@@H]1CCCN31` [Example 20, (S,1^3E,1^4E)-1^2-amino-3^5-fluoro-4-oxa-7-aza-1(5,3)-pyrazolo [1,5-a]pyrimidine-2(1,2)-pyrrolidine-3(1,2)-benzocyclooctanephane-8-one] gave a concentration for half-maximal inhibition (IC50) of 3.8 ± 0.21 nM.

Consider `Nc1nn2ccc3nc2c1C(=O)NCCCn1cc(F)cc(c1=O)[C@H]1CCCN31` [Example 22, (1^3E,1^4E,2^2R)-1^2-Amino-3^5-fluoro-3^1,3^2-dihydro-7-aza-1(5,3)-pyrazolo[1,5-a]pyrimidine-3(3,1)-pyridine-2(1,2)-pyrrolidylcyclooctanephane-3^2,8-dione], for which the IC50 turned out to be 0.57 ± 0.03 nM.

Turning to `Nc1nn2ccc3nc2c1C(=O)NCCCn1cc(F)cc(c1=O)C1CCCN31` (stereo not drawn) [Example 24, (1^3E,1^4E)-1^2-amino-3^5-fluoro-3^1,3^2-dihydro-7-aza-1(5,3)-pyrazolo[1,5-a]pyrimidine-3(3,1)-pyridine-2(1,2)-pyrrolidylcyclooctanephane-3^2,8-dione], the IC50 is 0.85 ± 0.07 nM.
